The values below come from PubChem BioAssay (NCI).

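Assay format: 96-well plates, 48-hour exposure. The concentration for 50% growth inhibition is given as GI50. The concentration for full growth arrest is given as TGI.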 *1 amine or outer side, *2 acyl side, *3 side chain or, on linkers, in order; H or OH if unused. Where a SMILES comes first, the peptide text is derived from it. Bridges are numbered along the chain shown (N, C = ends). [ ]: non-standard residue; d: D form. The star is where a group is joined. X38 = CC[C@H](C)[C@@H](N[*:1])[C@@H](O)CC(=O)[*:2]; NMeY = CN[C@@H](Cc1ccc(O)cc1)C(=O)O; dNMeL = CN[C@H](CC(C)C)C(=O)O; Hiv = CC(C)[C@H](O)C(=O)O; Pyruvoyl = CC(=O)C(=O)*; Cbz = O=C(OCc1ccccc1)*; OBn = c1ccc(CO*)cc1

Common to all, as to test: NCI-60 cell line screen, 48 h
Experiment [1] deals with A549 NSCLC.
For experiment [2], the system named is CCRF-CEM leukemia.
Experiment [3] relates to HT29 colon.
Experiment [4] concerns SF-295 CNS.
For experiment [5], the system named is SK-MEL-28 melanoma.
For experiment [6], the system named is SK-MEL-5 melanoma.
Experiment [7] has as its system SW-620 colon.
Experiment [8] relates to UACC-257 melanoma.
The subject of experiment [9] is UACC-62 melanoma.
Experiment [10] has as its system MCF7 breast.

Take `CC(=O)OCC(=O)[C@@]1(O)CC[C@H]2[C@@H]3CCC4=CC(=O)[C@H](C)C[C@]4(C)[C@H]3[C@@H](O)C[C@@]21C`: the TGI in experiment [1], in [2], in [3], in experiment [4], in experiment [5] and in experiment [6] was above 100 µM each time. For the same compound, the TGI in experiment [7], in [8] and in experiment [9] was above 100 µM each time.

With `COc1cc(/C=C/C(=O)c2sc(-n3nc(-c4ccccc4)cc3-c3ccccc3)nc2C)ccc1O`, the TGI in experiment [1], in experiment [2], in [4], in experiment [5], in experiment [6] and in [7] was above 100 µM in each case. Further, the TGI in experiment [8] and in experiment [9] was above 100 µM throughout.

As for `COC(=O)[C@H](Cc1ccccc1)NC(=O)NCCN(CCNC(=O)N[C@@H](Cc1ccccc1)C(=O)OC)C(=O)N[C@@H](Cc1ccccc1)C(=O)OC`, the TGI stood at 54.3 µM in [1]; 61.8 µM in experiment [10]; 35.3 µM in experiment [4]; 35.4 µM in experiment [5]; 37.4 µM in experiment [6]; 43.8 µM in [7]. Also, the TGI was found to be 40.4 µM in [8] and 49.8 µM in experiment [9].

Regarding `COC(=O)c1[nH]c(=S)[nH]c(=O)c1-c1ccc(Cl)cc1`, the TGI in experiment [1], in [2], in experiment [3], in [4], in experiment [5] and in experiment [6] was above 50 µM throughout. Besides, the TGI in [7], in [8] and in experiment [9] was above 50 µM each time.

On to `C[C@@]12C=CC3C/C(=N\C(N)=S)C=C(CCCC4OCCO4)[C@]3(CC1)C2` (stereo partly specified), for which the TGI in experiment [1] came to 59.7 µM; in experiment [3], 25.4 µM; in [10], 26.4 µM; in [4], 88 µM; in [5], 35 µM; in experiment [6], 24.8 µM. In addition, the TGI in experiment [7] is 48.9 µM; in experiment [8], 40.7 µM; in experiment [9], 30.4 µM.

With `COc1ccc(/C=C2\OC(=O)C(Cl)=C2c2ccc(OC)cc2)cc1`, the TGI in experiment [1], in [2], in experiment [3], in experiment [4], in experiment [5] and in experiment [6] was above 100 µM in each case. Besides, the TGI in experiment [7], in experiment [8] and in experiment [9] was above 100 µM throughout.

For the compound `NC(=O)OCC(COc1ccc(Cl)cc1)OC(=O)c1ccccc1Cl` (stereo unspecified), the TGI in [1] came to 75.8 µM; in experiment [2], 47.4 µM; in experiment [3], 33.2 µM; in [4] it was 62.2 µM; in [5], 37.7 µM; in experiment [6], 33.1 µM. Also, the TGI in [7] amounted to 36.4 µM; in experiment [8], 37.8 µM; in experiment [9] it was 31.4 µM.

With `Cn1nc(Cc2ccc(Cl)cc2)n(N)c1=O`, the TGI in experiment [1], in experiment [3], in [10], in experiment [4], in experiment [5] and in experiment [6] was above 100 µM throughout. Moreover, the TGI in [7], in experiment [8] and in [9] was above 100 µM each time.

In the case of `COc1cc(NC(C)=O)c2[nH]c3c(C)cc(NC(C)=O)c(C)c3c2c1`, the TGI in experiment [1], in experiment [2], in experiment [3], in [4], in [5] and in experiment [6] was above 100 µM throughout. For the same compound, the TGI in experiment [7] was above 100 µM.

For the compound `NS(=O)(=O)c1cc2c(cc1Cl)NC(C(=O)c1cc(=O)c3ccc(O)cc3o1)=NS2(=O)=O`, the TGI in experiment [1], in [2], in [3], in experiment [4], in experiment [5] and in [6] was above 100 µM throughout. Also, the TGI in experiment [7], in [8] and in experiment [9] was above 100 µM each time.

Take `c1ccc(Nc2nnc(CSc3nc(-c4ccccc4)c(-c4ccccc4)[nH]3)s2)cc1`: the TGI in [1] was 73.3 µM; in experiment [2], 49.1 µM; in experiment [3] it was 30.6 µM; in [4], 36 µM; in experiment [5], 44.6 µM; in experiment [6] it was 28.5 µM. For the same compound, the TGI in experiment [8] stood at 50 µM.

As to `COC(=O)CNC(=O)C(C)NC(=O)C(CC(=O)OCc1ccccc1)NC(=O)OCc1ccccc1` (stereo not drawn) (Cbz-Asp(OBn)-Ala-Gly-OMe; configuration not given here), the TGI in experiment [1] is above 100 µM; in [3] it was above 100 µM; in [10], above 100 µM; in experiment [4] it was above 100 µM; in [5], above 100 µM; in [6], 71.8 µM. Also, the TGI in experiment [7], in experiment [8] and in experiment [9] was above 100 µM each time.

Consider `C=CCONC(=O)c1ccc(Cl)cc1`, for which the TGI in experiment [1], in experiment [2], in experiment [3], in experiment [4], in experiment [5] and in experiment [6] was above 100 µM in each case. Moreover, the TGI in experiment [7], in experiment [8] and in [9] was above 100 µM each time.

On to `O=S(=O)([O-])[O-].[Fe+2].c1ccc(/C(=N\Nc2ccccn2)c2ccccn2)cc1`, for which the TGI in experiment [1] was 8.82 µM; in experiment [2], 9.71 µM; in experiment [3], 22.7 µM; in experiment [4], 8.77 µM; in [6], 4.43 µM; in experiment [7], 11.2 µM. For the same compound, the TGI in [8] stood at 4.39 µM; in [9], 5.29 µM.

Consider `CCOC(=O)CSc1ccnc(=O)[nH]1`, for which the TGI in experiment [1], in experiment [2], in [3], in experiment [4], in experiment [6] and in experiment [7] was above 100 µM throughout. Also, the TGI in [8] and in experiment [9] was above 100 µM each time.

For the compound `CC[C@H](C)[C@H]1NC(=O)[C@@H](NC(=O)[C@@H](CC(C)C)N(C)C(=O)[C@@H]2CCCN2C(=O)C(C)=O)[C@@H](C)OC(=O)[C@H](Cc2ccc(OC)cc2)N(C)C(=O)[C@@H]2CCCN2C(=O)[C@H](CC(C)C)NC(=O)[C@H](C(C)C)OC(=O)C[C@@H]1O` (Pyruvoyl-P[dNMeL]T[X38][Hiv]LP[NMeY](Me); ester 3-C), the TGI in experiment [1] amounted to 0.0618 µM; in experiment [3] it was 0.0795 µM; in experiment [10], 0.0599 µM; in [4] it was 0.525 µM; in experiment [5], 0.543 µM; in [6] it was 0.0102 µM. Besides, the TGI turned out to be 0.0655 µM in [8] and 0.0299 µM in experiment [9].

In the case of `CN(C(=O)C12C3C4C1C1C2C3C41I)C(C)(C)C` (stereo unspecified), the TGI was above 100 µM in experiment [1]; above 43 µM in [2]; above 100 µM in experiment [3]; above 100 µM in experiment [4]; above 100 µM in experiment [5]; above 100 µM in experiment [6]. The TGI in [7], in [8] and in experiment [9] was above 100 µM throughout.

For `COc1cc(/C=C\c2ccccn2)cc(OC)c1OC`, the TGI in [1], in [2], in experiment [3], in [4], in experiment [5] and in experiment [6] was above 100 µM in each case. Moreover, the TGI in experiment [7], in experiment [8] and in [9] was above 100 µM in each case.

On to `CC#COP(=O)(OCC)OCC`, for which the TGI in [1], in experiment [2], in experiment [3], in experiment [4], in experiment [6] and in experiment [7] was above 100 µM each time. The TGI in [8] and in experiment [9] was above 100 µM in each case.

Turning to `Cn1c(O)c(C(=O)Nc2cccs2)c(=O)[nH]c1=S`, the TGI in experiment [1] was 45 µM; in experiment [2], above 100 µM; in experiment [3], 34 µM; in [4], 38.1 µM; in experiment [5] it was 29 µM; in experiment [6], 26.9 µM. The results for the TGI in experiment [7], in [8] and in experiment [9] were 87.6 µM, 32.6 µM and 27.2 µM, respectively.

Take `COc1ccc(-c2ccc(-c3ccc(C(=N)N)nc3)s2)cc1`: the GI50 in [4] is 1.71 µM; in experiment [5], 1.75 µM; in experiment [6], 1.79 µM; in [7] it was 0.43 µM; in [8] it was 1.8 µM; in [9], 1.81 µM. Further, the TGI in experiment [4] was found to be 3.1 µM; in experiment [5], 3.27 µM; in [6], 3.26 µM; in experiment [7] it was 1.7 µM; in experiment [8], 3.51 µM; in experiment [9], 3.38 µM.

Turning to `NC(=S)NNC(=O)/C(=C/c1ccc(/C=C(\NC(=O)c2ccccc2)C(=O)NNC(N)=S)cc1)NC(=O)c1ccccc1`, the TGI in experiment [1], in experiment [2], in [3], in [4], in experiment [5] and in experiment [6] was above 100 µM throughout. Also, the TGI in [7], in [8] and in experiment [9] was above 100 µM each time.

On to `CC(C)=CCCC1(C)C=Cc2c(c(C)cc3c2[nH]c2cc(O)ccc23)O1` (stereo unspecified), for which the TGI in [1], in experiment [2], in experiment [3], in [5], in experiment [6] and in [7] was above 25 µM in each case. The compound also yielded a TGI in [9] above 25 µM.

Turning to `CCCCCCn1c(SCC)c2ccccc2c1-c1nc(F)nc(F)n1`, the TGI in [1], in [2], in experiment [3], in experiment [4], in experiment [5] and in [6] was above 100 µM each time. Further, the TGI in experiment [7] and in [8] was above 100 µM each time.

As to `O=C(NO)c1ccc([N+](=O)[O-])cc1`, the TGI in [1], in [2], in experiment [3], in [4], in experiment [5] and in [6] was above 100 µM in each case. The TGI in experiment [7] was above 100 µM; in [8] it was above 100 µM; in experiment [9] it was 50.5 µM.

For the compound `NC1CC(=O)c2cc(Cl)sc21` (stereo unspecified), the TGI in experiment [1], in experiment [2], in experiment [3], in experiment [4], in [5] and in experiment [6] was above 100 µM each time. Further, the TGI in experiment [7], in experiment [8] and in experiment [9] was above 100 µM in each case.

`CC1CC2OC(=O)C3CC(O)CC(=C23)[C@@]12C[C@@H](c1ccoc1)OC2=O` (stereo partly specified): the TGI in experiment [1], in experiment [2], in [3], in [4], in [5] and in experiment [6] was above 100 µM each time. The TGI in [7], in [8] and in experiment [9] was above 100 µM throughout.

Turning to `COc1ccc2c(c1)CC[C@@H]1[C@@H]2CC[C@]2(C)C(=O)C3(CCCCC3)C[C@@H]12`, the GI50 in experiment [1] is above 100 µM; in experiment [2], above 100 µM; in experiment [3], 79.5 µM; in [4], above 100 µM; in experiment [5], above 100 µM; in [6] it was above 100 µM. The results for the GI50 in experiment [7], in experiment [8] and in [9] were above 100 µM, 44.8 µM and above 100 µM, respectively. Moreover, the TGI in experiment [1], in experiment [2], in experiment [3], in experiment [4], in [5] and in experiment [6] was above 100 µM throughout. Besides, the TGI in [7], in [8] and in [9] was above 100 µM throughout.
